Source: patent US9475755B2, “Prophylactic agent for chronic kidney disease” (SBI Pharmaceuticals Co., Ltd., priority 2011, dated 2016)

Legend:
[1] = Administration of radiolabeled ALA (14C-ALA) to research the pharmacokinetics of ALA; type: in vivo
[2] = system: anemia in piglets; conditions: reported in Patent Document 1; cited from earlier work
[3] = system: chronic kidney disease; assay: Example 2: ingestion by a person diagnosed with chronic kidney disease, dose switched 50 mg / 5 mg / 50 mg; type: in vivo, human
Source text: The effects of ingesting aminolevulinic acid phosphate and sodium ferrous citrate were examined for a person diagnosed with chronic kidney disease.

[4] = system: chronic kidney disease; assay: Example 3: ingestion by a person with chronic kidney disease after removal of one kidney; type: in vivo, human; conditions: after ingestion of 150 mg aminolevulinic acid phosphate and 172 mg sodium ferrous citrate per day
Source text: The effects of ingesting aminolevulinic acid phosphate and sodium ferrous citrate were examined for a person diagnosed with chronic kidney disease after removing one of their kidneys about 5 years ago because of cancer.

[5] = (c) after one month of switching to 5 mg aminolevulinic acid phosphate + 5.74 mg sodium ferrous citrate
[6] = (d) after two months of switching to 5 mg aminolevulinic acid phosphate + 5.74 mg sodium ferrous citrate

Row | Compound | retention of radiation in the kidneys ([1]; ALA excessively administered, even if urine is discharged) | tissue accumulation of ALA-derived radiation ([1]; radiolabeled ALA (14C-ALA) administered) | prevention of anemia [2] | Serum creatinine [3, 5] [mg/dL] | Urea nitrogen [3, 5] [mg/dL] | eGFR [3, 5] [mL/min/1.73 m^2] | Serum creatinine [3, 6] [mg/dL] | Urea nitrogen [3, 6] [mg/dL] | eGFR [3, 6] [mL/min/1.73 m^2] | fatigue / quality of life ([3]; person who ingested aminolevulinic acid phosphate and sodium ferrous citrate) | eGFR value (in words) ([3]; when 50 mg of aminolevulinic acid phosphate was ingested) | eGFR value (in words) ([3]; when once again returned to 50 mg) | improvement rate of the eGFR value (in words) ([3]; when reduced to 5 mg aminolevulinic acid phosphate and 5.74 mg sodium ferrous citrate) | serum creatinine (FIG. 1, in words) [4]
1 | NCC(=O)CCC(=O)O [ALA, 5-aminolevulinic acid] | radiation has remained in the kidneys even after the passing of time | found in not only the anticipated liver and muscles, but also in the kidneys | effective in preventing anemia in piglets | – | – | – | – | – | – | – | – | – | – | –
2 | aminolevulinic acid phosphate | – | – | – | 1.14 | 12.90 | 50.10 | 1.25 | 14.10 | 45.30 | relieved from the fatigue peculiar to chronic kidney disease | remarkably improved (increased) | remarkable improvement | lowered | remarkable reduction
